Reference: ChEMBL document CHEMBL3217533, “Inhibition of Ras-Effector Interaction by Cyclic Peptides” (Medchemcomm, 2013)
Values belong to the compound of their own block, whether it stands above or below them. The source made the active and inactive calls. The rule behind the calls is not given here. *1 amine or outer side, *2 acyl side, *3 side chain or, on linkers, in order; H or OH if unused. Where a SMILES comes first, the peptide text is derived from it. Bridges are numbered along the chain shown (N, C = ends). [ ]: non-standard residue; d: D form. dβ3h(hPhe) = O=C(C[C@@H](CCc1ccccc1)N[*:1])[*:2]; Phe(4-F) = N[C@@H](Cc1ccc(F)cc1)C(=O)O; X1 = CC(C)(CO[*:2])C(=O)C(=O)[*:1]; Pip = O=C(O)[C@@H]1CCCCN1

Columns and labels:
[1] = biological target: Albumin (Bos taurus, UniProt P02769); experiment: Binding affinity to bovine serum albumin up to 20 uM by fluorescence anisotropic assay; conditions: cattle
[2] = Binding affinity to MBP-tagged VP35 (unknown origin) up to 20 uM by fluorescence anisotropic assay
[3] = biological target: T1, Tyrosine-protein phosphatase non-receptor type 1 (Homo sapiens) (UniProt P18031); experiment: Binding affinity to PTP1B (unknown origin) up to 20 uM by fluorescence anisotropic assay
T1 sequence (whole entry): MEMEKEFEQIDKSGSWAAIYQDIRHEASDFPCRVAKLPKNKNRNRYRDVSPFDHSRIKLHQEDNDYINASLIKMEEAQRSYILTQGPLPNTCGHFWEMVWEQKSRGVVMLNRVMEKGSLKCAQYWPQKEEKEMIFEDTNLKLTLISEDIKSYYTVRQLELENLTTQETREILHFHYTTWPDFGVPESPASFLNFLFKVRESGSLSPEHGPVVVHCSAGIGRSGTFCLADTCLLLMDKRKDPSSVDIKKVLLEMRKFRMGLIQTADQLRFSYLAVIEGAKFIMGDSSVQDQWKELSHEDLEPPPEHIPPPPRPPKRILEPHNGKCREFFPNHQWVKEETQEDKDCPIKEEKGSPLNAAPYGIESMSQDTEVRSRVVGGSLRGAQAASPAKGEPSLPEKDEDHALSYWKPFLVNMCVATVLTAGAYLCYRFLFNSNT

[4] = biological target: T2, Tyrosine-protein phosphatase non-receptor type 2 (Homo sapiens) (UniProt P17706); experiment: Binding affinity to TCPTP (unknown origin) up to 20 uM by fluorescence anisotropic assay
T2 sequence (whole entry): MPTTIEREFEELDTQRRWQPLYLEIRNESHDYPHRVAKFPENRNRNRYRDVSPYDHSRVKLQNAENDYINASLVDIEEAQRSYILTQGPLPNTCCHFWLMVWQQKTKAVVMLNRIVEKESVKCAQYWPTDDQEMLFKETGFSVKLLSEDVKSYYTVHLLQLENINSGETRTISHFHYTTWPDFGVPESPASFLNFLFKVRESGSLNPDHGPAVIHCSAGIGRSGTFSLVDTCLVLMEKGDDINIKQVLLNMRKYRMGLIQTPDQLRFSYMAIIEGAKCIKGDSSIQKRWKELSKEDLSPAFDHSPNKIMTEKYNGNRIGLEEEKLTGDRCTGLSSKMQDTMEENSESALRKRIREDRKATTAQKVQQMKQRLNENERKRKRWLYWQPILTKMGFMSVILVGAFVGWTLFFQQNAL

[5] = biological target: SH2 domain-containing protein 2A (Homo sapiens) (UniProt Q9NP31); experiment: Binding affinity to GST-tagged TSAD SH2 domain (unknown origin) up to 20 uM by fluorescence anisotropic assay
[6] = tested on: GTPase KRas (Homo sapiens), P01116 [G12V]; experiment: Binding affinity to K-Ras G12V mutant (unknown origin) after 2 hrs by fluorescence polarization-based spectrofluorimetric analysis
[7] = biological target: GTPase KRas (Homo sapiens, UniProt P01116, G12V); experiment: Inhibition of recombinant HA-tagged K-Ras G12V mutant (unknown origin) assessed as disruption of interaction with GST-tagged Raf-RBD after overnight incubation by HTRF assay
[8] = tested on: GTPase KRas (Homo sapiens), P01116 [G12V]; conditions: 10 uM
[9] = tested on: GTPase KRas (Homo sapiens), P01116 [G12V]; experiment: Inhibition of K-Ras G12V mutant in human A549 cells assessed as decrease in Mek phosphorylation up to 16 hrs; type: cell-based
[10] = tested on: GTPase KRas (Homo sapiens), P01116 [G12V]; experiment: Inhibition of K-Ras G12V mutant (unknown origin) assessed as disruption fluorescein-labeled Raf binding to beads immobilized with K-Ras G12V mutant at 10 uM after 60 mins by fluorescence microscopic-based bead binding assay
[11] = tested on: GTPase KRas (Homo sapiens), P01116 [G12V]; experiment: Inhibition of K-Ras G12V mutant in human A549 cells assessed as decrease in Erk phosphorylation up to 16 hrs; type: cell-based
[12] = tested on: GTPase KRas (Homo sapiens), P01116 [G12V]; experiment: Inhibition of K-Ras G12V mutant in human H358 cells assessed as decrease in Erk phosphorylation up to 16 hrs; type: cell-based
[13] = tested on: GTPase KRas (Homo sapiens), P01116 [G12V]; experiment: Inhibition of K-Ras G12V mutant (unknown origin) assessed as disruption of interaction with GST-tagged Raf-RBD at 10 uM after 60 mins by fluorescence microscopic-based bead binding assay
[14] = tested on: GTPase KRas (Homo sapiens), P01116 [G12V]; experiment: Binding affinity to K-Ras G12V mutant (unknown origin) by surface plasmon resonance assay
[15] = tested on: GTPase KRas (Homo sapiens), P01116 [G12V]; experiment: Inhibition of K-Ras G12V mutant (unknown origin) assessed as disruption of interaction with Tiam1 at 10 uM after 60 mins by fluorescence microscopic-based bead binding assay
[16] = tested on: GTPase KRas (Homo sapiens), P01116 [G12V]; experiment: Inhibition of K-Ras G12V mutant in human H358 cells assessed as decrease in Mek phosphorylation up to 16 hrs; type: cell-based

GTPase KRas, sequence (P01116 whole entry G12V): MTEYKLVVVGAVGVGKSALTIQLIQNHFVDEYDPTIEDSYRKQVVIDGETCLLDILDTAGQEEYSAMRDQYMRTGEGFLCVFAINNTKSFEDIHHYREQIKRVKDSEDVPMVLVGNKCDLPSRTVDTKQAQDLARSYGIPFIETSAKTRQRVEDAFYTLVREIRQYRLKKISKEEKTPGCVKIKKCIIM
GTPase KRas (Homo sapiens), P01116 [G12V], sequence (P01116 whole entry G12V): as above
SH2 domain-containing protein 2A (Homo sapiens), sequence (Q9NP31 whole entry, looked up, the tested form may be a part): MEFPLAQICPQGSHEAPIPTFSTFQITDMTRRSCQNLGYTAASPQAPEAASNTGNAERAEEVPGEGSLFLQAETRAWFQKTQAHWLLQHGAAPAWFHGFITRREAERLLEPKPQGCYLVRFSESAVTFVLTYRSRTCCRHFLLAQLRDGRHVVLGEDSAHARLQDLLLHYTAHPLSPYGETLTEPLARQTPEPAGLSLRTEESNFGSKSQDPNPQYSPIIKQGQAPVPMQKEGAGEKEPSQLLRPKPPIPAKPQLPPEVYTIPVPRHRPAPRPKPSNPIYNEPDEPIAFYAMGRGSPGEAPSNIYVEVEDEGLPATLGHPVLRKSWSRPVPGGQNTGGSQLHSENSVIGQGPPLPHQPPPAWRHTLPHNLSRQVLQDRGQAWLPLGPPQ
Albumin, sequence (P02769 whole entry): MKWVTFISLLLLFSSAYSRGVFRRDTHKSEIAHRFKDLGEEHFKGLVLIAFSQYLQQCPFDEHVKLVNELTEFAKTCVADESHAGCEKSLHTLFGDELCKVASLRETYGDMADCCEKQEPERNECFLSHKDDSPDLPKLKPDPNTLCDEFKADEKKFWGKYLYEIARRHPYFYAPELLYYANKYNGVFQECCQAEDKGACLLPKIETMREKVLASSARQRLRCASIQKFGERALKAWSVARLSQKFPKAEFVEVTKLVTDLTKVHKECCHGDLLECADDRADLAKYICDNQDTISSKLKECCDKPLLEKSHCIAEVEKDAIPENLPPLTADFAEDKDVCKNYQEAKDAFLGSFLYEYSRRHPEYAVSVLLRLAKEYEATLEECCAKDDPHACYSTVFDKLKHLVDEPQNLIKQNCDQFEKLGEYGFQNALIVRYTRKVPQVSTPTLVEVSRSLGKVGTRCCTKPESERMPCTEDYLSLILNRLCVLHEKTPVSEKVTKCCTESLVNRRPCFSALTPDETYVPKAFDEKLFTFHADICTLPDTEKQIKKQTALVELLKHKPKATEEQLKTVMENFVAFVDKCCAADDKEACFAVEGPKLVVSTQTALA

SMILES: CC(C)C[C@@H]1NC(=O)[C@H](CCCNC(=N)N)NC(=O)[C@H](CCCNC(=N)N)NC(=O)[C@H](Cc2ccc(O)cc2)NC(=O)[C@H](Cc2ccc(F)cc2)NC(=O)[C@H](CCCNC(=N)N)NC(=O)[C@H](CCC(N)=O)NC(=O)C[C@@H](CCc2ccccc2)NC(=O)[C@@H]2CCCCN2C(=O)C(=O)C(C)(C)COC1=O ([Pip][dβ3h(hPhe)]QR[Phe(4-F)]YRRL; linker N-C via X1)
Activity [1]: Not Active
Activity [2]: inactive
Activity [3]: inactive
Activity [4]: inactive
Activity [5]: inactive
Activity [6]: inactive

SMILES: CC(C)[C@@H]1NC(=O)[C@@H](CC(N)=O)NC(=O)[C@H](CCCNC(=N)N)NC(=O)[C@H](CCCNC(=N)N)NC(=O)[C@H](Cc2ccc(F)cc2)NC(=O)[C@H](Cc2ccc(O)cc2)NC(=O)[C@H](CCC(N)=O)NC(=O)C[C@@H](CCc2ccccc2)NC(=O)[C@@H]2CCCCN2C(=O)C(=O)C(C)(C)COC1=O
IC50 [7]: 1.2 µM

SMILES: CC(C)C[C@@H]1NC(=O)[C@H](CCC(=O)O)NC(=O)[C@H](c2ccccc2)NC(=O)[C@@H](Cc2ccccc2)NC(=O)[C@H](CCCN)NC(=O)[C@@H]2CCCN2C(=O)[C@H](CCC(N)=O)NC(=O)C[C@@H](CCc2ccccc2)NC(=O)[C@@H]2CCCCN2C(=O)C(=O)C(C)(C)COC1=O
IC50 [7]: 10 µM

SMILES: CC1(C)COC(=O)[C@H](Cc2ccccc2)NC(=O)[C@H](CCCNC(=N)N)NC(=O)CNC(=O)[C@H](Cc2ccc(O)cc2)NC(=O)[C@@H](Cc2ccc3ccccc3c2)NC(=O)[C@H](CCCN)NC(=O)[C@H](CCC(N)=O)NC(=O)C[C@@H](CCc2ccccc2)NC(=O)[C@@H]2CCCCN2C(=O)C1=O
IC50 [7]: 1.8 µM

SMILES: CCCC[C@H]1NC(=O)[C@@H](Cc2ccc3ccccc3c2)NC(=O)[C@@H](Cc2ccc3ccccc3c2)NC(=O)[C@@H](CCCCN)NC(=O)[C@H](CCCNC(=N)N)NC(=O)[C@H](Cc2ccc(F)cc2)NC(=O)[C@H](CCC(N)=O)NC(=O)C[C@@H](CCc2ccccc2)NC(=O)[C@@H]2CCCCN2C(=O)C(=O)C(C)(C)COC1=O
IC50 [7]: 10 µM

SMILES: C[C@@H]1NC(=O)[C@H](Cc2ccc(O)cc2)NC(=O)[C@H](CCCNC(=N)N)NC(=O)[C@@H]([C@H](C)O)NC(=O)CNC(=O)[C@H](CCC(N)=O)NC(=O)C[C@@H](CCc2ccccc2)NC(=O)[C@@H]2CCCCN2C(=O)C(=O)C(C)(C)COC(=O)[C@H](Cc2ccccc2)NC1=O
IC50 [7]: 2.3 µM

Continued, values first:

IC50 [7]: 1.1 µM
SMILES: CC1(C)COC(=O)[C@H](Cc2ccccc2)NC(=O)[C@H](CCCNC(=N)N)NC(=O)[C@@H](Cc2ccc3ccccc3c2)NC(=O)[C@H](CCCNC(=N)N)NC(=O)[C@@H](Cc2ccccc2)NC(=O)[C@H](CCCN=C(N)N)NC(=O)[C@H](CCC(N)=O)NC(=O)C[C@@H](CCc2ccccc2)NC(=O)[C@@H]2CCCCN2C(=O)C1=O

Activity [1]: Active
inhibition [8]: Active
inhibition [9]: inactive
inhibition [10]: Active
Activity [2]: Active
inhibition [11]: inactive
inhibition [12]: inactive
Activity [3]: Active
Activity [4]: Active
Activity [5]: Active
inhibition [13]: Active
Activity [14]: Active
inhibition [15]: Active
inhibition [16]: inactive
SMILES: CCCC[C@H]1NC(=O)[C@H](Cc2ccc(F)cc2)NC(=O)[C@H](CCCN=C(N)N)NC(=O)[C@@H](Cc2ccc3ccccc3c2)NC(=O)[C@H](CCCN=C(N)N)NC(=O)[C@H](CCCN=C(N)N)NC(=O)[C@H](CCC(N)=O)NC(=O)C[C@@H](CCc2ccccc2)NC(=O)[C@@H]2CCCCN2C(=O)C(=O)C(C)(C)COC1=O

IC50 [7]: 10 µM
SMILES: CC1(C)COC(=O)[C@H](Cc2ccccc2)NC(=O)[C@H](CCCNC(=N)N)NC(=O)[C@H](Cc2ccc(O)cc2)NC(=O)[C@@H]2CCCN2C(=O)[C@H](Cc2ccc(O)cc2)NC(=O)[C@@H](Cc2ccccc2)NC(=O)[C@H](CCC(N)=O)NC(=O)C[C@@H](CCc2ccccc2)NC(=O)[C@@H]2CCCCN2C(=O)C1=O

IC50 [7]: 2 µM
SMILES: CC(C)C[C@@H]1NC(=O)[C@@H](Cc2ccc3ccccc3c2)NC(=O)[C@H](CCCNC(=N)N)NC(=O)[C@@H](C(C)C)NC(=O)[C@H](CCCNC(=N)N)NC(=O)[C@H](C)NC(=O)[C@H](CCC(N)=O)NC(=O)C[C@@H](CCc2ccccc2)NC(=O)[C@@H]2CCCCN2C(=O)C(=O)C(C)(C)COC1=O
